Patent US20100266623A1, “SYNTHETIC, SELF ADJUVANTING VACCINES” (priority 2008, published 2010)
Structures can show the parent of a compound that is named as a salt. Where no end group is shown, it is not given here.

Key:
anti-DNP antibodies = experiment: Inhibition ELISA for specificity of anti-DNP antibodies on DNP-BSA coated plates; assay type: binding, BALB/c mice; details: for inhibition of antibody binding to DNP-BSA coated plates: inhibitor dilutions from 25 nmol/well; for inhibition of antibody binding to DNP-BSA coated plates by irrelevant inhibitors: sera not specified
Experimental: Competitive ELISA assays involved an extra step whereby ½ log dilutions of inhibitors in BSA5PBST beginning at 25 nmol/well were added to a constant limiting concentration of antibody in BSA5PBST and incubated for 2 hours on separate polyvinyl plates during the blocking step of a regular ELISA. 50 μl/well of the inhibitor and sera mixtures were then transferred to coated, blocked and washed plates and incubated overnight. Plates were then conjugated with HRP-RαM, developed, and read as per ELISA. The percentage of inhibition was determined by the following formula: […]
Inhibition ELISAs were utilised to determine whether antibody-titres detected in previous direct-binding ELISAs consisted mainly of anti-DNP antibodies. All immunogens (peptide- and protein-based) incorporated the 2,4-DNP isomer.
Sera were incubated with different amounts of various inhibitors (FIG. 14) before addition to DNP-BSA coated plates.

[1] = system: anti-amphetamine antibodies; experiment: Competitive ELISA for specificity of anti-amphetamine antibodies; assay type: binding; details: 2° sera of mice immunised with lipidated amphetamine-TH(MV); coat 5 μg per ml
[2] = 2° sera of BALB/c mice immunised with DNP-BSA in CFA
[3] = 2° sera of BALB/c mice immunised with lipidated DNP-TH(MV)

O=[N+]([O-])c1ccc(O)c([N+](=O)[O-])c1 [2,4-DNP, 2,4-dinitrophenol] was tested, and the “inhibition of antibody binding to DNP-BSA coated plates” value (anti-DNP antibodies; [2]) was “No inhibition” and the “inhibition of antibody binding to DNP-BSA coated plates” value (anti-DNP antibodies; [3]) was 35%.

O=C(O)CCCCCNc1ccc([N+](=O)[O-])cc1[N+](=O)[O-] [2,4-DNP-ahx, 2,4-dinitrophenol-ε-amino-n-caproic acid] was tested, and the “inhibition of antibody binding to DNP-BSA coated plates” value (anti-DNP antibodies; [2]) was “approximately 55%” and the “inhibition of antibody binding to DNP-BSA coated plates” value (anti-DNP antibodies; [3]) was “approximately 80%”.

With C[C@H](N)Cc1ccccc1 [Amphetamine-sulfate, D-amphetamine sulfate] the “inhibition of antibody binding to amphetamine-TH(ova) coated plates” value [1] was “low level of inhibition”.

For N[C@@H](Cc1ccc(O)cc1)C(=O)O [tyrosine], the “inhibition of antibody binding to DNP-BSA coated plates by irrelevant inhibitors” value (anti-DNP antibodies) was “no inhibition”.

For “amphetamine-TH(Flu): succinyl amphetamine-Lys-TH(Flu) peptide, no lipid; coating antigen and inhibitor (KALNNRFQIKGVELKS; not fully specified)”, the “inhibition of antibody binding to amphetamine-TH(ova) coated plates” value [1] was “lower level of inhibition”.

For COC(=O)[C@H]1[C@@H](OC(=O)c2ccccc2)C[C@@H]2CC[C@H]1N2C [cocaine hydrochloride], the “inhibition of antibody binding to amphetamine-TH(ova) coated plates” value [1] was “No inhibition”.

Oc1ccccc1 [phenol] was tested, and the “inhibition of antibody binding to DNP-BSA coated plates by irrelevant inhibitors” value (anti-DNP antibodies) was “no inhibition”.

CN[C@@H](C)Cc1ccccc1 [Methamphetamine hydrochloride] was tested, and the “inhibition of antibody binding to amphetamine-TH(ova) coated plates” value [1] was “No inhibition”.
